According to patent US20100143241A1, “Method and apparatus for delivery of agents across the blood brain barrier” (priority 2008, published 2010):

Tests used:
mouse brain = experiment: T1 estimation by spin echo MRI in mice given Gd-DTPA with or without BOMUS; format: in vivo
Method: (§1) To enhance the brain with MR contrast, Gd-DTPA (Magnevist, Bayer HealthCare Pharmaceuticals, Wayne, N.J.) was administered by intraperitoneal (IP) injection 10 minutes prior to BOMUS (FIG. 14b). […] The Gd-DTPA dose was 3.2, 6.4, or 9.5 mmol/kg, as noted later. After BOMUS, high-throughput MR images were acquired. Because Gd-DTPA is normally excluded by the BBB, opening of the BBB was indicated by contrast-enhancement on T1-weighted MRI.
T1 measurements were performed by acquiring a series of 2D spin echo images with varying TRs: TR=200, 400, 800, 1600, 3200, 6400, or 12800 ms; TE=7 ms; BW=31.25; slice thickness=1 mm; FOV=20×20 mm; matrix=128×128. T1 over a region of interest (ROI) was estimated using a three-parameter non-linear fit of the data to the following equation: I=m(1−[…])+a, where I is the mean ROI intensity and TR is the repetition time. The three terms that were fit were m, a multiplicative constant; a, an additive constant; and T1.
To measure the change in relaxivity due to the Gd-DTPA, T1 was estimated in ROIs selected from the cortex, basal ganglia and muscle (FIG. 21). In the control animal receiving neither Gd-DTPA nor BOMUS, T1 values were long in the cortex (2.08 s), basal ganglia (1.97 s), and muscle (2.01 s). In the animal given only Gd-DTPA, the muscle T1 shortened dramatically (0.71 s); but T1 was only shortened modestly in the cortex (1.53 s) and basal ganglia (1.56 s) because the intact BBB excluded the Gd-DTPA. However, in the BOMUS-treated animal, Gd-DTPA not only shortened T1 in the muscle (0.80 s), but Gd-DTPA also crossed the BBB and dramatically shortened T1 in the cortex (0.50 s) and basal ganglia (0.50 s).

blood-brain barrier = experiment: T1-weighted MRI contrast enhancement of the mouse brain after BBB opening with microbubbles and unfocused ultrasound; format: in vivo; details: for enhancement in CSF and brain parenchyma: Gd-DTPA 6.4 mmol/kg IP
Source text: Magnetic resonance images were acquired of a live mouse using a 7.0 T magnetic resonance system developed for magnetic resonance microscopy. […] IV injection of gadopentetate dimeglumine a standard magnetic resonance contrast agent results in enhancement of the muscles (FIG. 2b) but the brain remains dark. […] However, application of the ultrasound energy with the combination of Definity and gadopentetate dimeglumine opens the blood-brain barrier allowing the gadopentetate dimeglumine to actively stain the brain. Note in FIG. 2d the signal from the actively stained brain is nearly 5× (i.e., 5 fold or 5 times) stronger than it is in the unstained brain in FIG. 2a.
To open the BBB, 30 microliters of perflutren lipid microspheres (activated Definity) were injected through a tail vein catheter and simultaneously the ultrasound pulse sequence was initiated. The ultrasound was applied for 3 minutes.
as §1
For MRI, a 35 mm diameter quadrature transmit/receive volume coil (m2m Imaging Corp., Cleveland, Ohio) was used. The MR system was a 7 T horizontal bore magnet driven by a GE EXCITE console (General Electric Healthcare, Milwaukee, Wis.). MR images were acquired using either a high-throughput or high-resolution protocol. The high-throughput scan (3.2 minutes) used a 3D spoiled gradient recalled (SPGR) sequence with the following parameters: repetition time (TR)=25 ms; echo time (TE)=2 ms; flip angle (FA)=30 degrees; field of view (FOV)=20×20×12 mm; matrix=128×128×60; number of averages (NEX)=1. Data were acquired at a resolution of 156×156×200 micrometers.
High-resolution images were acquired with a similar 51 minute SPGR protocol: TR=25 ms; TE=3-4 ms; FA=15-22 degrees; FOV=20×20×8 mm; matrix=384×384×80; NEX=4. Data were acquired at a resolution of 52×52×100 micrometers.
To determine if the combination of unfocused ultrasound and microbubbles could be used to globally open the BBB, this treatment was compared to a variety of control scenarios (FIG. 16). […] However, co-administration of ultrasound and microbubbles globally opens the BBB, allowing the Gd-DTPA to enhance the brain. Animals received Gd-DTPA 6.4 mmol/kg IP 10 minutes prior to treatment, and T1-weighted images (high-throughput protocol) were acquired 20 minutes after treatment (FIG. 14b).

[1] = in vivo; cited from earlier work
[2] = BOMUS-treated animal given Gd-DTPA
[3] = animal given only Gd-DTPA, no BOMUS, intact BBB
[4] = Gd-DTPA along with BOMUS, high-resolution SPGR, left anterior cortex

In the case of `CNC[C@H](O)[C@@H](O)[C@H](O)[C@H](O)CO.CNC[C@H](O)[C@@H](O)[C@H](O)[C@H](O)CO.O=C([O-])CN(CCN(CC(=O)[O-])CC(=O)O)CCN(CC(=O)[O-])CC(=O)O.[Gd+3]` [Gd-DTPA, gadopentetate dimeglumine], the “T1 in basal ganglia” value (mouse brain; [2]) is reported as 0.50 s, the T1 in cortex (mouse brain; [2]) is reported as 0.50 s and the T1 in muscle (mouse brain; [2]) is reported as 0.80 s. The “T1 of brain after active staining” value (mouse brain; Gd-DTPA with BOMUS, reduced from approximately 2000 ms) was ~500 ms, the T1 in muscle (mouse brain; animal given only Gd-DTPA, no BOMUS) was 0.71 s and the “T1 in basal ganglia” value (mouse brain; [3]) was 1.56 s. For the same molecule, the T1 in cortex (mouse brain; [3]) was 1.53 s, the “enhancement in CSF and brain parenchyma” value (blood-brain barrier; both ultrasound and microbubbles simultaneously) was “dramatic enhancement in the CSF and brain parenchyma” and the “enhancement in CSF and brain parenchyma” value (blood-brain barrier; no treatment, only ultrasound, or only microbubbles) was “no enhancement in the cerebrospinal fluid (CSF) or in the brain parenchyma”. For the same molecule, the “increase in SNR over control mouse receiving no contrast agent” value (blood-brain barrier; [4]) was 90%, the “increase in SNR over mouse receiving only Gd-DTPA” value (blood-brain barrier; [4]) was 63% and the “time post-injection within which most of the enhancement occurs” value (blood-brain barrier; IP injection, preliminary studies) was 10 to 15 min. The “wash-out of brain staining after BOMUS” value (blood-brain barrier; time-course of T1-weighted signal, up to 27 hours after BOMUS) was “washes out within a day”, the “signal of actively stained brain relative to unstained brain” value (blood-brain barrier; ultrasound with Definity and gadopentetate dimeglumine, 7.0 T, T1-weighted, FIG. 2) was ~5 × and the half-life [1] was 1.6 h.
